Assays:
NCM460 = experiment: Normal cell line, NCM460; assay type: cell-based; settings: Homo sapiens, read-out: Normal Cell Lines, Colon NCM460
PaCa-2 = experiment: Cancer cell line IC50, PaCa-2; assay type: cell-based; settings: Homo sapiens, read-out: Cancer Cell Lines, IC50, Pancreas PaCa-2
MCF10A = experiment: Normal cell line, MCF10A; assay type: cell-based; settings: Homo sapiens, MCF-10A; read-out: Normal Cell Lines, Breast MCF10A
Description: (§1) In this experiment, exponentially growing cells were seeded at 1000 cells/well and allowed to attach for 48 h. […] After 10-20 days, cells were fixed and stained with modified Wright-Giemsa stain.

A549 = experiment: Cancer cell line IC50, A549; assay type: cell-based; settings: Homo sapiens, read-out: Cancer Cell Lines, IC50, Lung A549
[1] = system: Normal Cell Lines vs Cancer Cell Lines; experiment: Fold selectivity, normal vs cancer cell lines; assay type: cell-based
DLD1 = experiment: Cancer cell line IC50, DLD1; assay type: cell-based; settings: Homo sapiens, DLD-1; read-out: Cancer Cell Lines, IC50, Colon DLD1
MCF-7 = experiment: Cancer cell line IC50, MCF-7; assay type: cell-based; settings: Homo sapiens, MCF7; read-out: Cancer Cell Lines, IC50, Breast MCF-7
Description: as §1

HT-29 = experiment: Cancer cell line IC50, HT-29; assay type: cell-based; settings: Homo sapiens, read-out: Cancer Cell Lines, IC50, Colon HT-29
SW480 = experiment: Cancer cell line IC50, SW480; assay type: cell-based; settings: Homo sapiens, read-out: Cancer Cell Lines, IC50, Colon SW480
human cancer cells = experiment: Combination with Taxol, cancer cell survival in vitro; assay type: cell-based; settings: in the presence of β-Lapachone
cytochrome c = experiment: Western blot, cytochrome c release in DLD1; assay type: cell-based, human
[2] = system: human pancreatic cancer cells (Paca-2); experiment: Colony survival, combination with gemcitabine, Paca-2; assay type: cell-based; settings: gemcitabine 5 μg/ml day 1 followed by β-lapachone 2 μM day 2
From the text: (§2) The number of colonies in the control well (solvent-treated) was taken as 100% survival.

E2F [3] = experiment: Gel mobility shift assay, NCM460 nuclear proteins; assay type: cell-based, human; settings: NCM460, 4 μM, up to 2 hours
From the text: (§3) The arrow denotes the location of the putative E2F protein-DNA complex.

[4] = system: human colon cancer cell line DLD1; experiment: Colony formation and MTT assay, DLD1; assay type: cell-based; settings: DLD1, 4 hour exposure, 4-5 μM
Description: DLD1 cells were seeded into 6-well, 96-well plates and allowed to attach overnight. […] Control cells were treated with DMSO equivalent to the highest dose of β-Lapachone used. For the colony formation assay, colonies were allowed to grow for 14 days; MT assay cells continued in culture for an additional 2 days.

[5] = system: human multiple myeloma (MM) cells; experiment: MTT assay, multiple myeloma cells; assay type: cell-based; settings: 4 μM, 24 h, all seven MM cell lines
[6] = system: normal human colon cells (NCM460); experiment: Flow cytometry sub-G1 apoptosis, NCM460; assay type: cell-based; settings: NCM460, 24 h
Description: (§4) Cells were treated for 24 h, then were subjected to flow cytometric analysis after staining with propidium iodide.

[7] = system: normal human Peripheral Blood Mononuclear Cells (PBMC); experiment: MTT assay, PBMC; assay type: cell-based; settings: 0.5, 2, 4, and 8 μM, 24 h; fresh or proliferating PBMC
Description: Proliferating PBMC were generated by 72 h incubation with phytohemagglutinin (PHA) at 2 μg/mL.

[8] = system: human prostate cancer cells (PC-3); experiment: Colony survival, combination with GL331, PC-3; assay type: cell-based
From the text: as §2

[9] = system: human breast cancer cells (MCF-7); experiment: Colony formation assay, MCF-7; assay type: cell-based; settings: MCF-7, 4 h treatment, 2-4 μM and higher, 10-20 days
Description: as §1

PARP = experiment: Western blot, PARP cleavage; assay type: cell-based, human; settings: after 4 hours of exposure
E2F [10] = experiment: Gel mobility shift assay, DLD1 nuclear proteins; assay type: cell-based, human; settings: DLD1, 4 μM
From the text: as §3

[11] = system: normal human breast epithelial cells (MCF-10A); experiment: Colony formation assay, MCF-10A; assay type: cell-based; settings: 4 h treatment, 10-20 days
Description: as §1

[12] = system: human colon carcinoma cells (DLD1); experiment: Flow cytometry sub-G1 apoptosis, DLD1; assay type: cell-based; settings: DLD1, 2-4 μM, 24 h
Description: as §4

[13] = system: human colon carcinoma cells (SW480); experiment: Flow cytometry sub-G1 apoptosis, SW480; assay type: cell-based; settings: SW480, 2-4 μM, 24 h
Description: as §4

| SMILES | IC50 (PaCa-2) [nM] | IC50 (A549) [nM] | IC50 (DLD1) [nM] | IC50 (MCF-7) [nM] | IC50 (HT-29) [nM] | IC50 (SW480) [nM] | IC50 (NCM460) [nM] | IC50 (MCF10A) [nM] | Fold Selectivity [1] | also measured |
| --- | --- | --- | --- | --- | --- | --- | --- | --- | --- | --- |
| CC1(C)CCC2=C(S1)c1ccccc1C(=O)C2=O [3,4-dihydro-2,2-dimethyl-2H-naphtho[1,2-b]thiopyran-5,6-dione] | 1500 | 1700 | 2000 | 1000 | 1800 | 1500 | 7500 | 6700 | ˜4.5 | – |
| CC(=O)O[C@H]1C(=O)[C@@]2(C)[C@H]([C@H](OC(=O)c3ccccc3)[C@]3(O)C[C@H](OC(=O)[C@H](O)[C@@H](NC(=O)c4ccccc4)c4ccccc4)C(C)=C1C3(C)C)[C@]1(OC(C)=O)CO[C@@H]1C[C@@H]2O [Taxol®, paclitaxel] | – | – | – | – | – | – | – | – | – | reduction of effective Taxol concentration (human cancer cells): at least 10 fold |

Continued, in another order:

| IC50 (PaCa-2) [nM] | IC50 (A549) [nM] | IC50 (DLD1) [nM] | IC50 (MCF-7) [nM] | IC50 (HT-29) [nM] | IC50 (SW480) [nM] | SMILES | IC50 (NCM460) [nM] | IC50 (MCF10A) [nM] | Fold Selectivity [1] | also measured |
| --- | --- | --- | --- | --- | --- | --- | --- | --- | --- | --- |
| – | – | 1300 | 1000 | – | 1800 | CC(C)=CCC1CC2=C(OC1(C)C)c1ccccc1C(=O)C2=O (stereo not shown) [3,4-dihydro-2,2-dimethyl-3-(3-methyl-2-butenyl)-2H-naphtho[1,2-b]pyran-5,6-dione] | 10000 | – | ˜7 | – |
| 1200 | 1600 | – | – | 1600 | – | CC1(C)CCSC2=C1C(=O)C(=O)c1ccccc12 [3,4-dihydro-4,4-dimethyl-2H-naphtho[1,2-b]thiopyran-5,6-dione] | 6000 | 6300 | ˜4 | – |
| 1600 | – | 3600 | 1000 | 2100 | 3300 | CC1(C)CCC2=C(O1)c1ccccc1C(=O)C2=O [β-lapachone, 3,4-dihydro-2,2-dimethyl-2H-naphtho[1,2-b]pyran-5,6-dione] | 8100 | 5800 | – | time of peak cytochrome c release (cytochrome c; DLD1): 2 h; exposure time to cytochrome c release (cytochrome c; DLD1, earliest release): 1 h; colony survival, combination with gemcitabine [2]: complete eradication of colony forming units; level of E2F expression (E2F [3]): essentially unchanged; viable cells (colony formation and MTT assay) [4]: eliminates viable cells; cell viability in cultures (MTT) [5]: significantly decreased; apoptosis (sub-G1 fraction) [6]: no apoptosis; cytotoxicity to PBMC growth (MTT) [7]: No cytotoxicity; colony survival, combination with GL331 ([8]; β-lapachone 2 μM and GL331 2 μM simultaneously, 4 h): complete eradication of colony forming units; colony survival, combination with GL331 ([8]; β-lapachone 2 μM day 1 followed by GL331 2 μM day 2): complete eradication of colony forming units; colonies [9]: essentially complete elimination of colonies; PARP cleavage (PARP): cleavage of PARP; nuclear E2F protein levels vs. starting levels (E2F [10]; 0.5 hours): increased; nuclear E2F protein levels vs. starting levels (E2F [10]; 1 hour): markedly elevated; number of colonies [11]: no reduction in the number of colonies; size of the colonies [11]: smaller; apoptosis (sub-G1 fraction) [12]: induce apoptosis; apoptosis (sub-G1 fraction) [13]: induce apoptosis |

Source: patent publication US20050054018A1, “Activated checkpoint therapy and methods of use thereof” (priority 2002, published 2005)
